Results on five compounds are retold here after patent US11845805B2, “Bispecific antibody against CD3 and CD20 in combination therapy for treating diffuse large B-cell lymphoma” (GENMAB A/S, priority 2020, dated 2023).

Read-outs that look alike come from different tables or passages of the source.

Series [1] has as its system CD20-expressing Raji-luc tumor cells. The settings on record: even in the presence of an excess of IgG1-RTX-FEAR (rituximab variant with inert Fc domain); cited from earlier work.
Series [2] deals with primary DLBCL and follicular lymphoma patient biopsies. The settings on record: biopsies taken a certain amount of time after administration of an anti-CD20 antibody; cited from earlier work.
A further series concerns T cells. Description: T cell viability after 16 hours pre-incubation with CHOP components. It is filed as cell-based.
The mark [3] stands for this setting: T cells pretreated 16 hours with the CHOP component.

Regarding “epcoritamab: IgG1 bispecific CD3×CD20 antibody; heavy/light chain pairs SEQ ID NOs: 24/25 and 26/27; CAS 2134641-34-0”, the “tumor growth in the xenograft model” value in series [1] is on record as “effectively reduce tumor growth”. Besides, the “T-cell-mediated cytotoxicity in patient biopsies” value in series [2] is “induced T-cell-mediated cytotoxicity”.

Regarding `O=P1(N(CCCl)CCCl)NCCCO1` (stereo not drawn) [cyclophosphamide, 2H-1,3,2-Oxazaphosphorin-2-amine, N,N-bis(2-chloroethyl)tetrahydro-, 2-oxide], the T cell viability entry in the series on T cells is reported as “did not impact T cell viability”.

Regarding `COc1cccc2c1C(=O)c1c(O)c3c(c(O)c1C2=O)C[C@@](O)(C(=O)CO)C[C@@H]3O[C@H]1C[C@H](N)[C@H](O)[C@H](C)O1` [doxorubicin], in the series on T cells (setting [3]), the T cell viability entry is listed as “reduction in T cell viability”.

As to `C[C@]12C=CC(=O)C=C1CC[C@@H]1[C@@H]2C(=O)C[C@@]2(C)[C@H]1CC[C@]2(O)C(=O)CO` [prednisone, 17,21-dihydroxypregna-1,4-diene-3,11,20-trione], in the series on T cells (setting [3]), the T cell viability entry was “did not impact T cell viability”.

Turning to `CC[C@]1(O)C[C@H]2CN(CCc3c([nH]c4ccccc34)[C@@](C(=O)OC)(c3cc4c(cc3OC)N(C=O)[C@H]3[C@@](O)(C(=O)OC)[C@H](OC(C)=O)[C@]5(CC)C=CCN6CC[C@]43[C@@H]65)C2)C1` [vincristine], the T cell viability entry with T cells (setting [3]) was “did not impact T cell viability”.
